pIC50, pKi: −log10 of the molar value.
Legend:
Penicillium decumbens = experiment: Inhibition of Penicillium decumbens alpha-L-rhamnosidase at 1000 uM using p-nitrophenyl-glycoside as substrate by spectrophotometric method
Prunus dulcis [1] = experiment: Inhibition of almond beta-glucosidase at 1000 uM using p-nitrophenyl-glycoside as substrate by spectrophotometric method
[2] = Inhibition of bovine liver beta-glucosidase using p-nitrophenyl-glycoside as substrate by spectrophotometric method; parameters: species or system Bos taurus
Homo sapiens [3] = species: Homo sapiens; experiment: Inhibition of human lysosomal beta-glucosidase at 1000 uM using 4-methylumbelliferyl-beta-D-glucopyranoside as substrate preincubated for 45 mins followed by substrate addition measured after 30 mins by fluorescence spectrophotometric method
Aspergillus niger [4] = experiment: Inhibition of Aspergillus niger amyloglucosidase assessed as D-glucose level at 1000 uM using maltose as substrate measured after 10 to 30 mins
Beta-galactosidase = biological target: T1, Beta-galactosidase (Bos taurus, UniProt Q58D55); experiment: (§1) Inhibition of bovine liver beta-galactosidase using p-nitrophenyl-glycoside as substrate by spectrophotometric method
T1 sequence (Q58D55 whole entry): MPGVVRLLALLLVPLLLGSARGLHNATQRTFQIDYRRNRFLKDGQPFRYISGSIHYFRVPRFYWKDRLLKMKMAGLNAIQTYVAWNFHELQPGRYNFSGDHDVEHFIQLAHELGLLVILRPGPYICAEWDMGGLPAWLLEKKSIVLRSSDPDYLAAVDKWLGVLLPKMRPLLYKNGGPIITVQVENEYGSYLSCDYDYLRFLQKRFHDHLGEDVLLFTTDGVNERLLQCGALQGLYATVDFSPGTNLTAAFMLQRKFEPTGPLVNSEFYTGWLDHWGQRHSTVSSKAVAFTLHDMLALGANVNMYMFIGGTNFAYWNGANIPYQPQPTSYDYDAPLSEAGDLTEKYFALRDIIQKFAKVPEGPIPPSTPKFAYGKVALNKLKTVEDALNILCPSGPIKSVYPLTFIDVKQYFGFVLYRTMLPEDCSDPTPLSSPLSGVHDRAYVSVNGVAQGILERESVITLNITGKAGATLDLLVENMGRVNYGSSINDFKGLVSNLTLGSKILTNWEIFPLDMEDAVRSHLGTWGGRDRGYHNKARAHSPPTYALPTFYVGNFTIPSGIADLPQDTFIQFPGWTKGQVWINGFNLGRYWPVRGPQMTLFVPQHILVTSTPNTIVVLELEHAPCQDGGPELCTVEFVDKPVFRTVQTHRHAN

[5] = biological target: T2, Tissue alpha-L-fucosidase (Bos taurus) (UniProt Q2KIM0); experiment: Inhibition of bovine kidney alpha-L-fucosidase at 1000 uM using p-nitrophenyl-glycoside as substrate by spectrophotometric method
T2 sequence (whole entry): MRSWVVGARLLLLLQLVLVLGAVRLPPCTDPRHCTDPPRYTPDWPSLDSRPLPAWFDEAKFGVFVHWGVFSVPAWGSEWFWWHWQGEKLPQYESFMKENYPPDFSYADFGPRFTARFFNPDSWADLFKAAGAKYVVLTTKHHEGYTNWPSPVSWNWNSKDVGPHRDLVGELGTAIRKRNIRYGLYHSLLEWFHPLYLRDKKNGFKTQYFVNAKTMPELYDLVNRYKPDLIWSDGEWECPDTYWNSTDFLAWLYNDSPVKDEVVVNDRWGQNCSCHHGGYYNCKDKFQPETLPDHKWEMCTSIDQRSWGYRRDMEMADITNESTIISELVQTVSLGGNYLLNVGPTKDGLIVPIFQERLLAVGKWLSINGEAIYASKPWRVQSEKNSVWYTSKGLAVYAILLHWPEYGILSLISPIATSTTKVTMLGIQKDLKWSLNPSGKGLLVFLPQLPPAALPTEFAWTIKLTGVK

[6] = biological target: T3, Uncharacterized protein (Sus scrofa) (UniProt I3LIR5); experiment: Inhibition of porcine kidney trehalase assessed as D-glucose level at 1000 uM using maltose as substrate measured after 10 to 30 mins
T3 sequence (whole entry): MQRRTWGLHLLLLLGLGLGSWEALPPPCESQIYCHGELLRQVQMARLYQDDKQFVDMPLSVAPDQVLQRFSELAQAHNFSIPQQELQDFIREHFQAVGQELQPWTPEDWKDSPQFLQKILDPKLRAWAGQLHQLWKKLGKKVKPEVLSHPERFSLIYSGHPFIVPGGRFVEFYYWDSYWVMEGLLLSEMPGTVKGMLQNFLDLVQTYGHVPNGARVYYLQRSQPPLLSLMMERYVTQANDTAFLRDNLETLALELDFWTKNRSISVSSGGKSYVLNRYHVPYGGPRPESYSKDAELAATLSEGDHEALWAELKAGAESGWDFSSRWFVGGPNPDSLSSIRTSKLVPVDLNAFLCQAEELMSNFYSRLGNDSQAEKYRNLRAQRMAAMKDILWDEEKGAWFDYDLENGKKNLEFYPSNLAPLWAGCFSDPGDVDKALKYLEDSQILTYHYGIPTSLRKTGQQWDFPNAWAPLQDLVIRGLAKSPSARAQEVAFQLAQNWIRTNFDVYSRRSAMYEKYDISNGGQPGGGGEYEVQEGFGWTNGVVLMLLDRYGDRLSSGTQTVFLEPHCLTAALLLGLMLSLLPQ

Escherichia coli [7] = experiment: Inhibition of Escherichia coli beta-glucuronidase at 1000 uM using p-nitrophenyl-glycoside as substrate by spectrophotometric method
[8] = Inhibition of rice alpha-glucosidase using p-nitrophenyl-glycoside as substrate by spectrophotometric method; parameters: species or system Oryza sativa
[9] = Inhibition of maltase in rat small intestinal brush border membranes assessed as D-glucose level using maltose as substrate measured after 10 to 30 mins
Saccharomyces cerevisiae = experiment: Inhibition of yeast alpha-glucosidase at 1000 uM using p-nitrophenyl-glycoside as substrate by spectrophotometric method
Bos taurus = species: Bos taurus; experiment: Inhibition of bovine liver beta-glucosidase at 1000 uM using p-nitrophenyl-glycoside as substrate by spectrophotometric method
Coffea = experiment: Inhibition of coffee bean alpha-galactosidase at 1000 uM using p-nitrophenyl-glycoside as substrate by spectrophotometric method
Escherichia coli [10] = experiment: Inhibition of Escherichia coli beta-galactosidase at 1000 uM using p-nitrophenyl-glycoside as substrate by spectrophotometric method
[11] = biological target: T4, Alpha-mannosidase (Canavalia ensiformis) (UniProt C0HJB3); experiment: Inhibition of Jack bean alpha-mannosidase at 1000 uM preincubated for 45 mins followed by addition of p-nitrophenyl-glycoside as substrate measured after 30 mins by fluorescence spectrophometry
T4 sequence (whole entry): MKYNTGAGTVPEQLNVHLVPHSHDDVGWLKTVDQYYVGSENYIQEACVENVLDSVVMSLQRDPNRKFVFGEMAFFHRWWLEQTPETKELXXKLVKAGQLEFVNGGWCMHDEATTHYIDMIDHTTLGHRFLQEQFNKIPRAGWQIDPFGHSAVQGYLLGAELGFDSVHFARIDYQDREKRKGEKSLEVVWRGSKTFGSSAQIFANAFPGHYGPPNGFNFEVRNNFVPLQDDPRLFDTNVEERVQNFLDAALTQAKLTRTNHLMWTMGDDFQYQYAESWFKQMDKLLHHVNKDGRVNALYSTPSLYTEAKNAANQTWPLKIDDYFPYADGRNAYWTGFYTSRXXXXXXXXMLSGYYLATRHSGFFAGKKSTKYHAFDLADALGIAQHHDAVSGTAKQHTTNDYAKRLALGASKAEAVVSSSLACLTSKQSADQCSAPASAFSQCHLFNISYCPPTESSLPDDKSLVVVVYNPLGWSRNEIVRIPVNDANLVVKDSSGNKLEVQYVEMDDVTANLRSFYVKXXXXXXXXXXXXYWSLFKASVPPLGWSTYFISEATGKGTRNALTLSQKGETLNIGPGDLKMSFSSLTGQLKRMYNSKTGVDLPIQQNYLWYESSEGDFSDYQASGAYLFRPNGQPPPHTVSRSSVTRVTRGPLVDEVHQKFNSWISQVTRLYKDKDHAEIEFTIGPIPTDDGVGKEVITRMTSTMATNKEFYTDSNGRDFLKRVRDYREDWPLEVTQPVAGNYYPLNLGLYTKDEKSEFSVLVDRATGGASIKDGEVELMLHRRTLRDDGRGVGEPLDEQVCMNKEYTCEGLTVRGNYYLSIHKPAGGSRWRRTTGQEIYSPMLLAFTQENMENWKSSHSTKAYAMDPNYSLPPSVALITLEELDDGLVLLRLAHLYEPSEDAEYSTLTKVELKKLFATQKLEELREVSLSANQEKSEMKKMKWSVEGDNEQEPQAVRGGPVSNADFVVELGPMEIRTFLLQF

Helix pomatia = experiment: Inhibition of Helix pomatia beta-mannosidase at 1000 uM using p-nitrophenyl-glycoside as substrate by spectrophotometric method
[12] = Inhibition of Penicillium decumbens alpha-L-rhamnosidase assessed as reduction in hydrolysis of p-nitrophenyl-a-L-rhamnopyranoside
[13] = Inhibition of Penicillium decumbens alpha-L-rhamnosidase using p-nitrophenyl-glycoside as substrate by spectrophotometric method
Oryza sativa [14] = experiment: Inhibition of rice alpha-glucosidase at 1000 uM using p-nitrophenyl-glycoside as substrate by spectrophotometric method
Rattus norvegicus [15] = species: Rattus norvegicus; experiment: Inhibition of rat intestinal maltase assessed as D-glucose level at 1000 uM using maltose as substrate measured after 10 to 30 mins
[16] = biological target: T5, Beta-galactosidase (Bos taurus) (UniProt Q58D55); experiment: Inhibition of bovine liver beta-galactosidase at 1000 uM using p-nitrophenyl-glycoside as substrate by spectrophotometric method
T5 sequence (whole entry): T1 sequence (Q58D55 whole entry)

Prunus dulcis [17] = experiment: Inhibition of almond beta-glucosidase at 100 uM using p-nitrophenyl-glycoside as substrate by spectrophotometric method
Oryza sativa [18] = experiment: Inhibition of rice alpha-glucosidase at 100 uM using p-nitrophenyl-glycoside as substrate by spectrophotometric method
Rattus norvegicus [19] = species: Rattus norvegicus; experiment: Inhibition of rat intestinal maltase assessed as D-glucose level at 100 uM using maltose as substrate measured after 10 to 30 mins
[20] = biological target: T5, Beta-galactosidase (Bos taurus); experiment: as §1; details: concentration not given here
Aspergillus niger [21] = experiment: Inhibition of Aspergillus niger amyloglucosidase assessed as D-glucose level at 100 uM using maltose as substrate measured after 10 to 30 mins
[22] = biological target: T2, Tissue alpha-L-fucosidase (Bos taurus); experiment: Inhibition of bovine kidney alpha-L-fucosidase at 100 uM using p-nitrophenyl-glycoside as substrate by spectrophotometric method
[23] = biological target: T3, Uncharacterized protein (Sus scrofa); experiment: Inhibition of porcine kidney trehalase assessed as D-glucose level at 100 uM using maltose as substrate measured after 10 to 30 mins
Homo sapiens [24] = species: Homo sapiens; experiment: Inhibition of human lysosomal beta-glucosidase at 100 uM using 4-methylumbelliferyl-beta-D-glucopyranoside as substrate preincubated for 45 mins followed by substrate addition measured after 30 mins by fluorescence spectrophotometric method
Escherichia coli [25] = experiment: Inhibition of Escherichia coli beta-glucuronidase at 100 uM using p-nitrophenyl-glycoside as substrate by spectrophotometric method
[26] = Competitive inhibition of Penicillium decumbens alpha-L-rhamnosidase using p-nitrophenyl-glycoside as substrate by Lineweaver-Burk plot analysis
[27] = Inhibition of Penicillium decumbens alpha-L-rhamnosidase

| SMILES | inhibition (Penicillium decumbens) [%] | inhibition (Prunus dulcis [1]) [%] | pIC50 [2] | inhibition (Homo sapiens [3]) [%] | inhibition (Aspergillus niger [4]) [%] | inhibition [5] [%] | inhibition [6] [%] | inhibition (Escherichia coli [7]) [%] | inhibition (Saccharomyces cerevisiae) [%] | inhibition (Bos taurus) [%] | inhibition (Coffea) [%] | inhibition (Escherichia coli [10]) [%] | inhibition [11] [%] | inhibition (Helix pomatia) [%] | pIC50 [13] | further results |
| --- | --- | --- | --- | --- | --- | --- | --- | --- | --- | --- | --- | --- | --- | --- | --- | --- |
| CCCCCCCCNC(=S)N1[C@@H](CO)[C@H](O)[C@@H](O)[C@@H]1CO | < 50 | < 50 | 3.75 | < 50 | < 50 | < 50 | < 50 | < 50 | – | – | – | – | – | – | – | pIC50 (Beta-galactosidase): 3.58; pIC50 [8]: 3.00; pIC50 [9]: 3.00 |
| OC[C@@H]1N[C@@H](CO)[C@H](O)[C@H]1O | < 50 | < 50 | – | < 50 | < 50 | – | – | – | < 50 | < 50 | < 50 | < 50 | < 50 | < 50 | – | – |
| C[C@H](O)[C@@H]1NC[C@H](O)[C@@H]1O | – | – | – | – | – | – | – | – | – | – | – | – | – | – | – | pIC50 [12]: 5.40 |
| CCCCCCCC/N=C1/SC[C@H]2[C@H](O)[C@@H](O)[C@H](CO)N12 | – | < 50 | – | < 50 | < 50 | < 50 | < 50 | < 50 | < 50 | < 50 | < 50 | < 50 | < 50 | < 50 | 5.80 | inhibition (Oryza sativa [14]): < 50%; inhibition (Rattus norvegicus [15]): < 50%; inhibition [16]: < 50% |
| OC[C@H]1[C@H](O)[C@@H](O)[C@@H]2CS/C(=N/CCCCCCCCCc3ccccc3)N12 | – | – | 4.48 | – | – | – | – | – | – | – | – | – | – | – | 6.06 | inhibition (Prunus dulcis [17]): < 50%; inhibition (Oryza sativa [18]): < 50%; inhibition (Rattus norvegicus [19]): < 50%; inhibition [20]: < 50%; inhibition (Aspergillus niger [21]): < 50%; inhibition [22]: < 50%; inhibition [23]: < 50%; inhibition (Homo sapiens [24]): < 50%; inhibition (Escherichia coli [25]): < 50% |
| C[C@H]1NC[C@H](O)[C@H](O)[C@H]1O | – | – | – | – | – | – | – | – | – | – | – | – | – | – | 5.00 | pKi [26]: 5.38; pIC50 [27]: 5.30 |

Source: ChEMBL document CHEMBL3868599, “Strategy for designing selective α-l-rhamnosidase inhibitors: Synthesis and biological evaluation of l-DMDP cyclic isothioureas” (Bioorg Med Chem, 2017)
